This note sets out measurements from US20210207153A1, “SYSTEMS AND METHODS FOR EDITING A PLANT GENOME” (PIONEER HI-BRED INTERNATIONAL, INC., priority 2018, published 2021).

Several values for one entry are separate records, joined by “and”; a condition that tells them apart may be missing. Equal entries are not always repeated. Structures can show the parent of a compound that is named as a salt. Where two headings read alike, the source gives them in different places.

The subject of assay [1] is resistant embryos. Description: ABA application and embryo partial desiccation on embryo germination frequency. Format: cell-based, canola. The procedure: To further increase embryo germination frequency, abscisic acid (ABA) at 25 μM was added in microspore culture medium NLN-10S with 0.1 -0.2 mM glyphosate 14 days after bombardment. The resistant embryos were partially desiccated in a Petri dish for one week at 25° C. The Petri dish contained a piece of Bounty paper towel with water for maintaining moisture.

Assay [2] concerns microspores. The procedure: • DNA constructs with promoter AT-UBIQ10 and glyphosate resistant gene GAT4621 were used in the following experiments. • 1. […] In developing canola transformation procedure, microspores were cultured for two days or three days in IM-17M and then cultured in NLN-10S for one day or not before bombardment.
• 2. Effect of CaC12 in IM-17M before bombardment and NLN-13S with 5 μM trifluralin on transformation efficiency • 15 mM calcium chloride was supplemented in IM-17M in microspore culture before bombardment.
It was further studied that calcium chloride was supplemented in NLN-13S with 5 μM trifluralin after bombardment on transformation efficiency.

For assay [3], the system named is embryos. As to the kind of experiment: PCIB in embryo germination medium on germination frequency. Format: cell-based, canola. The procedure: • 4. Increase embryo germination frequency • One of technical challenges in canola transformation was that embryo germination frequency was only around 20%. Antiauxin 2-(p-Chlorophenoxy)-2-methylpropionic acid (PCIB) was included in embryo germination medium BGM for inhibiting callusing. Embryo germination frequency was doubled when 0.0625-1 mg/l PCIB was added in BGM with 0.1 mM glyphosate

Assay [4] relates to microspore-derived hypocotyls. Description: Sucrose in osmotic medium: transient GUS expression. The assay is classed as cell-based, Brassica. The conditions noted are these: for # with GUS: 24 hypocotyls. As to the method: Experiments 3 to 7 describe work done using microspore-derived hypocotyls. Microspores were isolated as is known to those skilled in the art and cultured in NLN medium for 21 to 28 days (Swanson et al., 1987). Hypocotyls were excised from the embryos produced from the microspores when the embryos were approximately 3-5 mm in size. Microspores of cultivar 46A65 were cultured in NLN medium for approximately 21 days. On the 21st day, the NLN medium was changed and diluted (1:20) with fresh NLN medium and the embryos were cultured for 5 more days. The hypocotyls were excised from the embryos and preconditioned overnight on MMW+BAP (4 mg/l)+NAA (0.25 mg/l). The hypocotyls were transferred to osmotic medium (for example, 17% sucrose+1% agar+1 g/l MES, pH 6.0) for 4 hours and then bombarded. The DNA construct used in bombardments was PHP 18644. After bombardment, the hypocotyls were cultured on the osmotic medium for approximately between 4 and 20 hours (for example, overnight). The bombarded hypocotyls were then cultured on MMW+BAP (4 mg/l)+kanamycin (25-50 mg/l) for bud induction. Regenerated buds were cultured on MMW+kanamycin (50-100 mg/l) or MMW+BAP (0.2 mg/l)+kanamycin (50-100 mg/l) for plant regeneration. The following experiments were done to test the effect of sucrose concentration, amount of gold particle used and the effect of rupture disk on transformation frequency.
The objective was to find the appropriate concentration of sucrose in the osmotic medium (sucrose+1% agar+1 g/l MES, pH 6.0) in order to produce the highest transformation efficiency.
GUS analysis is known to those skilled in the art. The protocol can be found in numerous references, for example Wu H, McCormac A C, Elliott M C, Chen D F (1998) Agrobacterium-mediated s table transformation of cell suspension cultures of barley (Hordeum vulgare). Plant Cell Tissue and Organ Culture 54:161-171.

For assay [5], the system named is pre-incubated microspores. Description: Sucrose in osmotic medium: resistant embryo production. Format: cell-based, Brassica. As to conditions: Total of 4 reps. The procedure:
The purpose of this experiment was to find the optimal concentration of sucrose in the osmotic medium. Microspores were cultured for 4-7 days using 17S/10S protocol. […] The rupture disk was 900 psi. […] The diluted cultures were incubated in the light for 2-3 weeks.

The subject of assay [6] is non-transgenic microspores. Description: G418 selection kill curve: embryo growth and survival in liquid medium. Format: cell-based, Brassica. The conditions noted are these: for # Green embryos or with green island: liquid medium. The text has this: (§1) The objective was to determine the concentration of G418 that kills non-transgenic microspores. Prior to this experiment, selection was done on solid medium, not in liquid medium. Using liquid selection for Brassica transgenic cells is novel. Selection in liquid medium is advantageous for at least the following reasons: (a) it allows selection at an early stage, thereby eliminating the need for subsequent transfers of explants, (b) it allows for a cleaner selection because the explants are generally smaller when they are in liquid medium and the liquid allows all the surfaces of the explant to be exposed to the selection agent, (c) it may reduce the frequency of chimeras, and (d) a lower amount of the selection agent is needed therefore reducing the toxicity to the researcher and the environment. The effect of various concentrations of kanamycin on embryo growth in liquid medium was tested. […] Accordingly, it was difficult to discriminate transgenic tissue or embryos from non-transgenic.

Assay [7] concerns pre-incubated microspores. As to the kind of experiment: Glyphosate resistant embryo selection after bombarding pre-incubated microspores. The assay is classed as cell-based, Brassica. The procedure:
Experiments 8 to 17 describe the work done using pre-incubated microspores. The microspores were cultured in NLN-17S/10S for 2-10 days. Optimally, the microspores are cultured for 5-7 days. Embryos could not be detected with the naked eye. The embryogenic microspores were collected so that they remain viable and embryogenic with a Nitex™ sieve (15-36 um in pore size) or Percoll® (35-45%) gradient centrifugation. Pre-incubated microspores were used as bombarded materials. Any Brassica line that is capable of regenerating by microspore culture can be used. The microspores were cultured for 1-3 days in NLN-17S at 31.5° C., and then in NLN-10S for 4-5 days at 25° C. The constructs used in the bombardments were PHP18644, PHP21965, PHP22024, PHP22021, and PHP23560 (see Table 9). The constructs can be the full plasmid or the expression cassette only. For example, PHP22024 can be either the expression cassette or the full plasmid. The pre-incubated microspores were filtrated with sieves of pore size of 15 μm to 36 μm. The collected microspores were used for bombardment. The microspores were loaded on a sieve 15 μm or 20 μm on two layers of filter-paper and dried for less than one minute. […] Resistant embryos were recorded after two to three weeks of culture. […]

Assay [8] has as its system non-bombarded and bombarded embryos. Description: Effect of kanamycin on embryo growth in liquid medium. Format: cell-based, Brassica.
Description: as §1

[9] abbreviates: ABA 25 μM plus partial desiccation.
[10] abbreviates: 15 mM CaCl2 in IM-17M before bombardment, 24 shots.

In the case of `CC1=CC(=O)CC(C)(C)[C@@]1(O)/C=C/C(C)=C\C(=O)O` [ABA, abscisic acid], in assay [1] (ABA 25 μM in NLN-10S 14 days after bombardment plus partial desiccation one week, 479 embryos), the Total shoots is reported as 338. Further, in assay [1] (setting [9]), the Germination was found to be 76.6% and the “embryo germination frequency, change” value was “significantly increased”.
For `[Ca+2].[Cl-].[Cl-]` [CaCl2, calcium chloride], the “# embryos” value in assay [2] (setting [10]) amounted to 574; in assay [2] (CaCl2 0 mM in IM-17M, 10 mM in NLN-13S + trifluralin, 15 shots), 169; in assay [2] (CaCl2 0 mM in IM-17M, 20 mM in NLN-13S + trifluralin, 19 shots), 300; in assay [2] (CaCl2 15 mM in IM-17M, 0 mM in NLN-13S + trifluralin, 22 shots) it was 139. Moreover, the Embryos/shot in assay [2] (setting [10]) is 23.9; in assay [2] (CaCl2 0 mM in IM-17M, 10 mM in NLN-13S + trifluralin) it was 11; in assay [2] (CaCl2 0 mM in IM-17M, 20 mM in NLN-13S + trifluralin), 16; in assay [2] (CaCl2 15 mM in IM-17M, 0 mM in NLN-13S + trifluralin), 6.
In the case of `CC(C)(Oc1ccc(Cl)cc1)C(=O)O` [PCIB, 2-(p-Chlorophenoxy)-2-methylpropionic acid], in assay [3] (0.0625-1 mg/l PCIB in BGM with 0.1 mM glyphosate), the “embryo germination frequency, change” value is on record as “doubled”. The Germination frequency is 44% in assay [3] (PCIB 0.0625 mg/l); 43% in assay [3] (PCIB 0.125 mg/l); 50% in assay [3] (PCIB 0.25 mg/l); 44% in assay [3] (PCIB 0.5 mg/l); 44% in assay [3] (PCIB 1 mg/l). Further, the “# plantlets” value worked out at 28 in assay [3] (PCIB 0.0625 mg/l in BGM with 0.1 mM glyphosate, 63 embryos); 31 in assay [3] (PCIB 0.125 mg/l, 72 embryos); 36 in assay [3] (PCIB 0.25 mg/l, 72 embryos); 28 in assay [3] (PCIB 0.5 mg/l, 63 embryos); 36 in assay [3] (PCIB 1 mg/l, 81 embryos).
Take `OC[C@H]1O[C@@](CO)(O[C@H]2O[C@H](CO)[C@@H](O)[C@H](O)[C@H]2O)[C@@H](O)[C@@H]1O` [Sucrose, sucrose]: the “# spots/hypocotyls” value in assay [4] (15% sucrose) was found to be 9.8; in assay [4] (17% sucrose) it was 10.1; in assay [4] (19% sucrose), 19.8; in assay [4] (21% sucrose) it was 16.7. The “# total spots” value turned out to be 236 in assay [4] (15% sucrose), 242 in assay [4] (17% sucrose), 475 in assay [4] (19% sucrose) and 400 in assay [4] (21% sucrose). Besides, the “# with GUS” value stood at 23 in assay [4] (15% sucrose), 23 in assay [4] (17% sucrose), 23 in assay [4] (19% sucrose) and 24 in assay [4] (21% sucrose). The values for the Resistant embryos/plate in assay [5] (17% sucrose) and in assay [5] (19% sucrose) were 2.5 and 2.1, respectively.
Turning to `CN[C@@H]1[C@@H](O)[C@@H](O[C@@H]2[C@@H](O)[C@H](O[C@H]3O[C@H]([C@@H](C)O)[C@@H](O)[C@H](O)[C@H]3N)[C@@H](N)C[C@H]2N)OC[C@]1(C)O` [Variant G418, G418 disulfate salt], the “# Green embryos or with green island” value in assay [6] (G418 1.25 mg/l, disulfate salt) is 30 and 28; in assay [6] (G418 2.5 mg/l, disulfate salt), 14 and 11; in assay [6] (G418 5 mg/l) it was 0; in assay [6] (G418 10 mg/l), 0. The “concentration sufficient to differentiate transformed cells from untransformed cells” value in assay [6] (NLN with 6.5% sucrose medium) lay within 5 to 10 mg/L.
In the case of `O=C(O)CNCP(=O)(O)O` [glyphosate], the “identification of resistant embryos” value in assay [7] (glyphosate 0.1 mM or 0.2 mM) is on record as “allowed identification of resistant embryos”. The selection efficiency result in assay [7] (glyphosate 0.2 mM versus 0.1 mM) is recorded as “fewer false positive results”.
As for `NC[C@H]1O[C@H](O[C@H]2[C@H](O)[C@@H](O[C@H]3O[C@H](CO)[C@@H](O)[C@H](N)[C@H]3O)[C@H](N)C[C@@H]2N)[C@H](O)[C@@H](O)[C@@H]1O` [kanamycin], the “concentration sufficient to bleach non-bombarded embryos and inhibit non-bombarded embryo growth” value in assay [8] amounted to 10 mg/L.
